# Patent publication US9067898B1, “Isothiazole derivatives as GPR120 agonists for the treatment of type II diabetes” (Janssen Pharmaceutica NV, priority 2014, dated 2015)
# How the values were obtained:
# [1] = test system: C57bl/6J mice; assay: GPR120 C57bl6 mouse IPGTT; type: in vivo; settings: 10 mg/kg dosed 30 min before glucose IP 1.5 g/kg
# Description: Male, C57bl/6J Mice were ordered in at 8 weeks of age from Jackson Labs. Individual mice weighed anywhere in the range of 25-30 grams on study day. The mice were fasted, with removal of food occurring at 7 am on the morning of the study. Animals were moved into the room at 10:00 am, to give them time to acclimate. Glucose (insulin syringes) was drawn up either the night before or the morning of the study. Glucose was dosed (IP) at 1.5 g/kg at 7.5 ml/kg (20% glucose straight TEKNOVA, 250 ml sterile bottle w/catalogue number G0525). Test compounds were kept spinning and were only drawn into the syringes prior to study commencement. Animals were bled via tail snip to determine basal glucose levels prior to dosing of treatments. An Ascensia BREEZE Blood Glucose Monitoring System by Bayer (using unique 10-test disks) was used for determining glucose levels. The bleeds started at approximately 12:45 pm and dosing started, at 1-minute intervals, immediately after. All groups were dosed 30 minutes prior to glucose administration at a dose volume of 10 ml/kg (the dose volume was calculated separately for each individual animal). Thirty minutes after the first dose animals were bled again for a second baseline, or T=0, and immediately dosed with glucose via an i.p. injection. The exact dose volume for glucose was also calculated separately for each individual animal. […]
# [2] = test system: C57bl/6J mice; assay: C57bl6 mouse OGTT; type: in vivo; settings: 3 mg/kg dosed 30 min before glucose PO 3 g/kg
# Description: Male, C57bl/6J Mice were ordered in at 8 weeks of age from Jackson Labs. Individual mice weighed anywhere in the range of 25-30 grams on study day. The mice were fasted, with removal of food occurring at 7 am on the morning of the study. Animals were moved into the room at 10:00 am, to give them time to acclimate. Glucose (insulin syringes) was drawn up either the night before or the morning of the study. Glucose was dosed (IP) at 1.5 g/kg at 7.5 ml/kg (20% glucose straight TEKNOVA, 250 ml sterile bottle w/catalogue number G0525). Test compounds were kept spinning and were only drawn into the syringes prior to study commencement. Animals were bled via tail snip to determine basal glucose levels prior to dosing of treatments. An Ascensia BREEZE Blood Glucose Monitoring System by Bayer (using unique 10-test disks) was used for determining glucose levels. The bleeds started at approximately 12:45 pm and dosing started, at 1-minute intervals, immediately after. All groups were dosed 30 minutes prior to glucose administration at a dose volume of 10 ml/kg (the dose volume was calculated separately for each individual animal). Thirty minutes after the first dose animals were bled again for a second baseline, or T=0, and immediately dosed with glucose via an i.p. injection. The exact dose volume for glucose was also calculated separately for each individual animal. Glucose measurements were taken at −30 min prior to compound dose, at t=0 (immediately prior to glucose dose), and at 15, 30, 45, 60, 90 min post glucose dose.
# Glucose values were entered into an Excel sheet and graphed in GraphPad Prism. The following were calculated from Prism: Change from −30 to 0 BSLN Glucose, Raw Glucose AUC −30 to 90 min, Delta Glucose AUC −30 to 90 min, Raw Glucose AUC 0 to 90 min, Delta Glucose AUC 0 to 90 min.
# The assay design is the same as that described above for the C57bl6 mouse IPGTT. The difference is that glucose was dosed PO at 3 g/kg, 7.5 ml/kg of 40% glucose.
# Representative compounds of the present invention were tested according to the procedures as described in Biological Example 4, above with results as listed in Table 3, below. […] Where a compound was tested more than once, each result is listed individually.
# [3] = test system: C57B16 mice on a high fat diet (DIO); assay: GPR120 DIO mice OGTT screening; type: in vivo, mouse; parameters: DIO Lowering Glucose AUC (−30 to 90) @ 10 mg/kg: unit not given here; settings: for DIO Lowering Glucose AUC (−30 to 90) @ 10 mg/kg: 10 mg/kg dosed 30 min before PO glucose, change from vehicle; for change in vivo at 10 mg/kg: Mus musculus, read-out: DIO Lowering Glucose AUC (−30 to 90) @ 10 mg/kg, heading: DIO Lowering Glucose AUC @ 10 mg/kg, 10 mg/kg dosed 30 min before PO glucose, change from vehicle
# Description: 18-22 week old, C57B16 mice on a high fat diet (60% HFD) for 12-16 weeks (ave. body weight ˜37-41 g) were fasted for 6 hr, with removal of food occurring at 7 am on the morning of the study. The animals were sorted into treatment groups the day before the study by body weight. Animals outside the bounds of ˜30-50 g were left out of the study. The animals had been handled and shammed a total of 5-8 days (1-3 days immediately prior to the study). Glucose (in 1 mL syringes) was drawn up the morning of the study. Test compounds were kept spinning and were only drawn into 1 ml syringes prior to study commencement. Animals were bled via tail snip to determine basal glucose levels prior to dosing of treatments. An Ascensia BREEZE Blood Glucose Monitoring System by Bayer was used for determining glucose levels.
# Animals were moved into the testing room at ˜9-11 am, to yield them time to acclimate. The bleeds and dosing started at approximately 1 pm in 30-second intervals per animal. All groups were dosed 30 minutes prior to glucose administration at a dose volume of 10 ml/kg (the dose volume was calculated separately for each individual animal). Test compounds were administered at one or more of the following dosages: 0.1 mg/kg, 0.3 mg/kg, 1 mg/kg, 3 mg/kg and 10 mg/kg.
# Thirty minutes after the first dose (with test compound) animals were bled again for a second baseline, or T=0, and immediately dosed with glucose (20% solution; TEKNOVA, 250 ml sterile bottle w/catalogue number G0525) via a PO injection. The exact dose volume for glucose was also calculated separately for each individual animal.
# Blood glucose was measured at 15, 30, 45, 60, and 90 minutes post-glucose administration via the snipped tail. If an animal reached a value of “HI”, the upper limit of the glucometer (600 mg/dl) was substituted as the blood glucose value and the study was analyzed as normal with no exclusions. If 50% or more of any treatment group reaches a “HI” value at least once, the study was considered invalid and repeated. Glucose values were typed into an EXCEL spreadsheet where they were used to calculate glucose AUC and delta AUC post-compound and post-glucose. The glucose excursion curves and the different versions of the AUC's were graphed in GraphPad Prism 5.
# Note: All statistics completed in this study were completed using the statistical software package GraphPad Prism 5. Standard procedures for analyzing data sets from screening GPR120 compounds in DIO mouse OGTT's were as listed here below. In addition to the statistics that were run using GraphPad Prism 5, Microsoft Excel was used to calculate the percent changes in AUC from vehicle groups as detailed below.
# Change from −30 to 0 BSLN Glucose, Raw Glucose AUC −30 to 90 min, Delta Glucose AUC −30 to 90 min, Raw Glucose AUC 0 to 90 min, Delta Glucose AUC 0 to 90 min were analyzed using Column Statistics Analysis, with mean values used to calculate % change from the vehicle mean group, as well as mean, SEM and/or % change from vehicle, where appropriate; and using One-Way ANOVA w/a Tukey Post-Test (Comparing All Pairs of Columns) with each treatment group examined to see if it was statistically significant compared to vehicle (*=P<0.05, **=P<0.01, ***=P<0.001).
# Representative compounds of the present invention were tested according to the procedure as described in Biological Example 3, with results as listed in Table 2, below. Where a compound was tested more than once, each result is listed individually.
Compound,C57 OGTT 3 mg/kg [2],DIO Lowering Glucose AUC (−30 to 90) @ 10 mg/kg [3],further results
"3-(4-[[3-(4-ethylphenyl)-5-(trifluoromethyl)-1,2-thiazol-4-yl]methoxy]-1-benzothiophen-7-yl)propanoic acid [Cpd 92]",−39,,C57 IPGTT 10 mg/kg [1]: −41
"3-(4-[[3-(4-ethylphenyl)-5-(trifluoromethyl)-1,2-thiazol-4-yl]methoxy]-3,5-difluorophenyl)propanoic acid [Cpd 70]",,−0.5,
"CCc1ccc(-c2cc(F)sc2COc2ccc(CCC(=O)O)c(C)c2C)cc1 [Cpd 1, 3-(4-[[3-(4-ethylphenyl)-5-fluorothiophen-2-yl]methoxy]-2,3-dimethylphenyl)propanoic acid]",,,change in vivo at 10 mg/kg [3]: -26%
"Cc1c(CCC(=O)O)ccc(OCc2sc(F)cc2-c2ccc(Cl)cc2)c1C [Cpd 3, 3-(4-((3-(4-chlorophenyl)-5-fluorothiophen-2-yl)methoxy)-2,3-dimethylphenyl)propanoic acid]",,,change in vivo at 10 mg/kg [3]: -49%
"Cc1ccc(-c2nsc(C(F)(F)F)c2COc2c(F)cc(CCC(=O)O)cc2F)c(F)c1 [Cpd 65, 3-(3,5-difluoro-4-[[3-(2-fluoro-4-methylphenyl)-5-(trifluoromethyl)-1,2-thiazol-4-yl]methoxy]phenyl)propanoic acid]",,−0.61,
"O=C(O)CCc1cc(F)c(OCc2c(-c3ccc(Cl)c(F)c3)nsc2C(F)(F)F)c(F)c1 [Cpd 67, 3-(4-((3-(4-chloro-3-fluorophenyl)-5-(trifluoromethyl)isothiazol-4-yl)methoxy)-3,5-difluorophenyl)propanoic acid]",,−0.78,
"O=C(O)CCc1cc(F)c(OCc2c(C3CCCC3)nsc2C(F)(F)F)c(F)c1 [Cpd 71, 3-(4-[[3-cyclopentyl-5-(trifluoromethyl)-1,2-thiazol-4-yl]methoxy]-3,5-difluorophenyl)propanoic acid]",−37,−0.52,
"CCc1ccc(-c2nsc(C(F)(F)F)c2COc2ccc(CCC(=O)O)c(F)c2F)cc1 [Cpd 73, 3-(4-((3-(4-ethylphenyl)-5-(trifluoromethyl)isothiazol-4-yl)methoxy)-2,3-difluorophenyl)propanoic acid]",,−0.51,
"O=C(O)CCc1cc(F)c(OCc2c(-c3ccc(Cl)cc3F)nsc2C(F)(F)F)c(F)c1 [Cpd 74, 3-(4-((3-(4-chloro-2-fluorophenyl)-5-(trifluoromethyl)isothiazol-4-yl)methoxy)-3,5-difluorophenyl)propanoic acid]",,−0.71,
"Cc1ccc(-c2nsc(C(F)(F)F)c2COc2c(F)cc(CC(C)C(=O)O)cc2F)c(F)c1 (stereo not shown) [Cpd 76, 3-(3,5-difluoro-4-[[3-(2-fluoro-4-methylphenyl)-5-(trifluoromethyl)-1,2-thiazol-4-yl]methoxy]phenyl)-2-methylpropanoic acid]",,−0.8,
"CCc1ccc(-c2snc(Cl)c2COc2ccc(CCC(=O)O)c(C)c2C)cc1 [Cpd 85, 3-(4-[[3-chloro-5-(4-ethylphenyl)-1,2-thiazol-4-yl]methoxy]-2,3-dimethylphenyl)propanoic acid]",−49,,
"OCCCc1cc(F)c(OCc2c(-c3ccc(Cl)cc3)nsc2C(F)(F)F)c(F)c1 [Cpd 100, 3-(4-[[3-(4-chlorophenyl)-5-(trifluoromethyl)-1,2-thiazol-4-yl]methoxy]-3,5-difluorophenyl)propan-1-ol]",−39,,
"OCCCc1ccc(OCc2c(Cl)nsc2-c2ccc(Cl)cc2)c(F)c1F [Cpd 102, 3-(4-((3-chloro-5-(4-chlorophenyl)isothiazol-4-yl)methoxy)-2,3-difluorophenyl)propan-1-ol]",−32,,
"Cc1c(CCC(=O)O)ccc(OCc2c(-c3ccc(Cl)cc3)nsc2C(F)(F)F)c1C [Cpd 142, 3-(4-((3-(4-chlorophenyl)-5-(trifluoromethyl)isothiazol-4-yl)methoxy)-2,3-dimethylphenyl)propanoic acid]",−49,,
